Paper PMC10902354, “Deficiency in PHD2-mediated hydroxylation of HIF2α underlies Pacak-Zhuang syndrome” (Communications Biology, 2024)

Tested on: hypoxia-responsive element (HRE) reporter, HEK293A cells
Test: Dual-luciferase reporter assay of HIF2α transcriptional activity (VEGFA-HRE) in HEK293A cells
Type: cell-based
Details: for HIF2α transcriptional activity, Firefly(RLU)/Renilla(RLU) (Normalized To WT Mean): Fig. 6a, normal oxygenated conditions; for HIF2α transcriptional activity, Firefly(RLU)/Renilla(RLU) (Normalized to WT Mean): Fig. 6b; for HIF2α transcriptional activity, Firefly(RLU)/Renilla(RLU) (Normalized to WT Mean) / HRE-driven transcriptional activity (in words): normoxic conditions; for HRE-driven transcriptional activity (in words): relative to HIF2α WT or other mutant
From the text: The following previously described plasmids were used in this study: pcDNA3-HA-VHL30[28] and pET-46-HIS6-PHD2[4]. pGL3-VEGFA-HRE was generated by amplifying nucleotides 1271-1797 of human VEGFA CDS (AH001553.2) using primers introducing 5’ KpnI and 3’ XhoI sites; digested PCR products were subcloned into pGL3-Basic (Promega) cut with KpnI and XhoI. pRL-SV40 was obtained from Promega. pcDNA3-HA-HIF2α has been previously described. Class 1 (D539N, A530V, P531A, Y532C) and Class 2 (M535T, G537R, P534R, Y532H) HIF2α mutants, as well as mutant P405A, were generated using QuikChange site-directed mutagenesis (Agilent) and confirmed by DNA sequencing. pcDNA3-HA-HIF2α -P405A/P531A was obtained from Addgene (Addgene plasmid # 18956)[29]. The α-HA tag antibody was obtained from Cell Signaling (C29F4). HIFα-CODD peptides were custom synthesized by Genscript and supplied at ≥ 95% purity. All synthesized peptides were C-terminally amidated, peptides used for MST binding studies and crystallography were N-terminally acetylated and peptides used for the indirect hydroxylation assays were N-terminally biotinylated. For crystallography and MST experiments peptides were dissolved directly into 50 mM Tris pH 8.0 buffer and for indirect hydroxylation assays N-terminally biotinylated peptides were initially dissolved in DMSO to create stock solutions and further diluted into aqueous buffers for immobilization on streptavidin agarose beads. The sequences of each peptide can be found in Supplementary Table 1.
HEK293A cells were maintained in DMEM (Wisent #319-015) supplemented with 10% (v/v) Fetal Bovine Serum (FBS, Wisent #098-150) in a humidified atmosphere at 37 °C and 5% CO2. Transfection complexes containing 2 μg of total DNA (0.8 ug pcDNA3-HA, 0.9 μg pGL3-VEGFa-HRE, 0.1 μg pRL-SV40, and 0.2 μg of either pcDNA3-HA-HIF2α-WT or mutant) and 8 ug Polyethyleneimine pH 7.2 (Polysciences, Cat #23966) in 400 μl OptiMEM™ Reduced Serum Medium (Gibco #31985070) were incubated for 15 min at room temperature, then were added to 5 × 10^5 HEK293A cells (diluted in 400 μl OptiMEM™) and incubated for an additional 5 min. Mixture was plated in six-well plates containing 2 ml complete medium and incubated at 37 °C, 5% CO2 for 24 h. Firefly luciferase and Renilla luciferase activity were measured with the Dual-Luciferase Reporter Assay System (Promega #E1960) according to the manufacturer’s instructions. Measurements (1 s) were recorded using a Varioskan Lux microplate reader (Thermo Fisher Scientific). For each sample, firefly RLU values were divided by corresponding Renilla RLU values.

Substance | HIF2α transcriptional activity, Firefly(RLU)/Renilla(RLU) (Normalized To WT Mean) (Exp 1, 24 h) | HIF2α transcriptional activity, Firefly(RLU)/Renilla(RLU) (Normalized To WT Mean) (Exp 2, 24 h) | HIF2α transcriptional activity, Firefly(RLU)/Renilla(RLU) (Normalized To WT Mean) (Exp 3, 24 h) | HIF2α transcriptional activity, Firefly(RLU)/Renilla(RLU) (Normalized To WT Mean) (Exp 4, 24 h) | HIF2α transcriptional activity, Firefly(RLU)/Renilla(RLU) (Normalized To WT Mean) (Exp 5, 24 h) | HIF2α transcriptional activity, Firefly(RLU)/Renilla(RLU) (Normalized To WT Mean) (mean of Exp 1-5, 24 h) | HIF2α transcriptional activity, Firefly(RLU)/Renilla(RLU) (Normalized to WT Mean) (Exp 1, 24 h) | HIF2α transcriptional activity, Firefly(RLU)/Renilla(RLU) (Normalized to WT Mean) (Exp 2, 24 h) | HIF2α transcriptional activity, Firefly(RLU)/Renilla(RLU) (Normalized to WT Mean) (Exp3, 24 h) | HIF2α transcriptional activity, Firefly(RLU)/Renilla(RLU) (Normalized to WT Mean) (mean of Exp 1-3, 24 h) | HRE-driven transcriptional activity (in words) (listed as HIF2αP405A/P531A) | HRE-driven transcriptional activity (in words) (listed as P405A mutant) | HRE-driven transcriptional activity (in words) (listed as P405A mutation)
HIF2a-A530V: Class 1 HIF2α mutant expressed from plasmid in HEK293A cells | 2.033 | 1.3534 | 1.897 | 3.054 | 1.561 | 1.98 |  |  |  |  |  |  | 
HIF2a-D539N: Class 1 HIF2α mutant expressed from plasmid in HEK293A cells | 2.166 | 1.679 | 1.625 | 2.569 | 1.2135 | 1.85 |  |  |  |  |  |  | 
HIF2a-G537R: Class 2 HIF2α mutant expressed from plasmid in HEK293A cells | 1.297 | 1.639 | 0.7606 | 1.668 | 0.917 | 1.256 |  |  |  |  |  |  | 
HIF2a-M535T: Class 2 HIF2α mutant expressed from plasmid in HEK293A cells | 1.412 | 1.394 | 0.5168 | 1.444 | 0.9762 | 1.149 |  |  |  |  |  |  | 
HIF2a-P405A/P531A: HIF2α NODD and CODD site double mutant (Addgene plasmid 18956) |  |  |  |  |  |  | 1.594 | 4.627 | 2.493 | 2.905 | indistinguishable transcriptional activity from HIF2αP531A single mutant |  | 
HIF2a-P405A: HIF2α NODD site mutant expressed from plasmid in HEK293A cells |  |  |  |  |  |  | 0.6521 | 1.374 | 0.7703 | 0.9323 |  | transcriptional activity comparable to wild-type HIF2α | no significant increase in HIF2α transcriptional activation activity
HIF2a-P531A: Class 1 HIF2α mutant (CODD site mutant) expressed from plasmid in HEK293A cells | 2.696 | 2.508 | 2.211 | 4.182 | 1.7617 | 2.672 | 2.003 | 3.782 | 2.069 | 2.618 |  |  | 
HIF2a-P534R: Class 2 HIF2α mutant expressed from plasmid in HEK293A cells | 1.1133 | 1.547 | 1.102 | 1.425 | 0.8617 | 1.21 |  |  |  |  |  |  | 
HIF2a-WT: HA-HIF2α WT expressed from pcDNA3-HA-HIF2α in HEK293A cells | 1.095 | 1.349 | 0.5003 | 1.339 | 0.7176 | 1 | 0.6881 | 1.449 | 0.8624 | 1 |  |  | 
HIF2a-Y532C: Class 1 HIF2α mutant expressed from plasmid in HEK293A cells | 1.579 | 1.687 | 2.039 | 3.004 | 1.351 | 1.932 |  |  |  |  |  |  | 
HIF2a-Y532H: Class 2 HIF2α mutant expressed from plasmid in HEK293A cells | 1.505 | 1.636 | 0.8256 | 1.673 | 0.9402 | 1.316 |  |  |  |  |  |  | 
